Columns and labels:
Assay type in all cases: cell-based
Details in all cases: in combination with Akt activation inhibitor TCN-P
[1] = test system: THP1 human leukemic cells; assay: viability of THP1 human leukemic cells, combination with TCN-P
[2] = test system: U937 human leukemic cells; assay: viability of U937 human leukemic cells, combination with TCN-P
[3] = test system: HL60 human leukemic cells; assay: viability of HL60 human leukemic cells, combination with TCN-P

Measured: synergy with TCN-P to inhibit viability

C#Cc1cccc(Nc2ncnc3cc(OC)c(OCCCCCCC(=O)NO)cc23)c1 [CUDC-101]
synergizes with TCN-P: all assays above

Cc1cnc(NC(=O)Nc2cc(Br)c(C)cc2OC[C@@H]2CNCCO2)cn1 [LY2603618, rabusertib]
synergizes with TCN-P: all assays above
